We go through four substances from patent publication US20030087263A1, “Method of screening remedy for cancer with the use of interaction domain of p53 and mortalin” (priority 1999, published 2003).

In test [1] the test system is p53-dependent transcriptional activation. Kind of test: p53-dependent luciferase reporter analysis in p53-/- mouse embryonic fibroblasts. It is filed as cell-based. The note with it: p53-/- MEF, PG13-luc type reporter, temperature-sensitive p53 at 32.5° C. From the text:
After preparing cDNAs that encode mutant mortalin proteins missing each of the functions shown in FIG. 3A and mortalin proteins point mutated at two different amino acid residues between mot-1 and mot-2 according to the method described in Example 1, the cDNAs were used for p53-dependent reporter analysis. Specifically, cells obtained by stable transfection of plasmid […], wherein the firefly luciferase gene has been linked to p53 responsive promoter (having the promoter sequence “[…]” and expresses the gene downstream of that sequence as a result of binding with p53 protein), and temperature-sensitive mutant p53 protein expression vector pMSVp53Val135 into mouse embryonic fibroblasts deficient in functional p53 gene (P53−/−MEF) (see, Wadhwa, R. et al. (1998) J. Biol. Chem. 273, 29586-29591) were transfected with various mortalin mutant protein expression vectors and pRL-CMV, serving as an internal control for standardizing transcription efficiency. After incubation at 32.5° C., which is an allowable temperature for the mutant p53 protein, the luciferase activity was measured.
A general note: Reporter assays use an easily measured gene product as a stand-in for the process of interest.

The test system is the same in test [2]. In words: p53 responsive β-gal reporter assay by microinjection into Saos2 cells. In kind it is cell-based, human. The conditions noted are these: for β-Gal Staining: Percent of Blue cells / β-Gal Staining: Blue cells: Saos2, microinjected with pMSV p53 and p53 β-gal rep. From the text: (C) The p53 activity detected for the p53 responsive β-galactosidase reporter construct was inhibited when a plasmid encoding mot-2 (b and i) , mut-11 (d and K), or mutant V16M (f and m) was simultaneously microinjected with the p53 expression plasmid. […] Microinjected cells were visualized by staining with FITC-labeled anti-rabbit IgG (a-g).
Similar results were obtained according to an experiment wherein the above mutant mortalin proteins, temperature-sensitive mutant p53 protein, and p53 responsive β-gal reporter gene pRGCΔfos-lacZ were introduced into a human osteosarcoma cell line Saos2 by microinjection.

For test [3], the target named is T1, full-length mouse wild-type p53 (Mus musculus, UniProt P02340).
T1 construct: mRNA encoding full-length mouse wild-type p53; made in house; host or cells: in vitro translation in rabbit reticulocyte lysate (Stratagene)
T1 sequence (P02340 whole entry): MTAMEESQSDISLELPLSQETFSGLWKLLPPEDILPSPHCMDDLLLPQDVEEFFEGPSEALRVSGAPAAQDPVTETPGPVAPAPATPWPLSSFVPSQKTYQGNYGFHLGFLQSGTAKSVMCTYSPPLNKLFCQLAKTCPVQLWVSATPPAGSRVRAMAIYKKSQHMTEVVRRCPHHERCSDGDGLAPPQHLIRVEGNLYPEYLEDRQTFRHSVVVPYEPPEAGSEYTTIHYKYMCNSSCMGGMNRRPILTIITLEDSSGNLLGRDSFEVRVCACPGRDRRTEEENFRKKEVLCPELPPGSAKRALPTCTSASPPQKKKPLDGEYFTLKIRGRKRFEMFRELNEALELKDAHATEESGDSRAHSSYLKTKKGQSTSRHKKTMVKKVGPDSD
Kind of test: in vitro binding assay of mortalin protein and p53 protein (co-immunoprecipitation). The note with it: His-tagged recombinant mortalin, in vitro translated 35S-labeled p53, co-precipitation. The method, then: After preparing mRNA encoding full-length mouse wild-type p53 with a template of pSP65/p53 plasmid (Braithwaite, A. W. and Jenkins, J. R. (1989) J. Virol. 63, 1792-1799) using Transprobe T Kit (Pharmacia), [^35S]-labeled p53 protein was obtained by subjecting to in vitro translation reaction using rabbit reticulocyte lysate (Stratagene) for 1 hour in the presence of L-[^35S]methionine. After separating the translation products by SDS-PAGE, the translation reaction products were confirmed by autoradiography. The in vitro translated p53 protein was purified by immunoprecipitation with anti-p53 antibodies (PAb 421, PAb 1620 (Calbiochem), and PAb 122 (Boehringer-Mannheim)), and was used in the subsequent in vitro binding assays described below.
After preparing cDNAs encoding the recombinant mortalin protein (full-length) and various deletion mutants (described later) by PCR and converting them to a form to encode a His-tagged protein by inserting the cDNAs into pQE30 vector (Qiagen) the cDNAs were introduced into E. coli for expression. The resulting bacterial extracts were purified with Ni-NTA agarose (Qiagen). […] Then, p53 protein was detected by autoradiography; mortalin and deletion mutants thereof were detected by Western blotting with anti-His antibody and ECL-chemiluminescence (Amersham).

Another test concerns mortalin. In words: immunoprecipitation of GFP-p53 fragments using anti-mortalin antibody. It is filed as binding. The conditions noted are these: transfected cells, probed with anti-GFP antibody. From the text: (C) Mortalin was immunoprecipitated from cells transfected with GFP-tagged p53 fragments with polyclonal anti-mortalin antibodies, and was visualized with monoclonal antibodies. Immunocomplexes (Mot-IC) were also probed with monoclonal anti-GFP antibody to determine whether the p53 fusion proteins co-precipitate with mortalin (left panel). […] Bands corresponding to the IgG heavy and light chains are also detected on Mot-IC gel.

The test system of a further test is COS7 cells. In words: localization of GFP-fused p53 fragments expressed in COS7 cells. In kind it is cell-based. The conditions noted are these: COS7 cells transfected with GFP-fused protein. From the text: (B) A photograph showing the green fluorescence of GFP in COS7 cells transfected with (a) GFP alone, (b) GFP-p53 (amino acid residues 312-352), and (c) GFP-p53 (amino acid residues 312-319).
Since the in vitro translated product of a 43 kDa truncated p53, lacking the C terminus, lacks the ability to bind to mortalin protein as described in Example 1, it was presumed that this deleted region contains the region that is related to the binding to mortalin.

Test [4] concerns binding between p53 and mortalin (amino acid residues 1-435 or 105-435). Kind of test: competitive inhibition assay of p53-mortalin binding. The conditions noted are these: increasing amounts of competitor peptide. From the text: (C) The increase of the amounts of the peptide (comp. pep) corresponding to the mortalin amino acid residues 253-282 to be added reduced the […] the mortalin amino acid residues 1-435 (mot 1-435) and the peptide corresponding to mortalin amino acid residues 105-435 (mot 105-435). p53 was immunoprecipitated with the polyclonal anti-p53 antibody (CM-1) and detected by Western blotting with a monoclonal anti-p53 antibody (PAb 421)) (bands represented with an arrowhead). Co-immunoprecipitated mortalin was detected by Western blotting with anti-His tag antibody (indicated by arrows).
Next, a competitive inhibition assay was performed to confirm the involvement of this peptide of amino acid residues 253-282 in the binding to p53.

Where no end group is shown, it is not given here.

Consider “mot-1: mortalin protein cloned from normal mouse cells; differs from mot-2 by two amino acids (residues 618 and 624)”, for which, in test [1], the “inhibition of p53-dependent transcriptional activation (luciferase activity)” value is “did not have any effect”. The “β-Gal Staining: Percent of Blue cells” value is 88% in test [2] and 90% in test [2] (with Anti-mot IgG). Further, the “β-Gal Staining: Blue cells” value in test [2] (with Anti-mot IgG) turned out to be 83; in test [2] (number of blue cells among transfected cells), 52. The “effect on p53-dependent transcriptional activation (β-gal reporter)” value in test [2] (Saos2, microinjection) is “did not have a significant effect”. Moreover, in test [3], the “binding with full-length p53 protein” value is “specifically bound”.

As to “GFP-p53 (amino acid residues 372-390): green fluorescent protein fused with p53 amino acid residues 372-390 ({GFP}-KKGQSTSRHKKLMFKTEGP; UniProt P04637 372-390, looked up, fragment)”, the “binding to mortalin (co-precipitation)” value in the test on mortalin is reported as “no precipitation”.

As to “GFP-p53 (amino acid residues 312-352): green fluorescent protein fused with p53 amino acid residues 312-352 ({GFP}-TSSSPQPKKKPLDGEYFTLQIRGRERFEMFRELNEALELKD; UniProt P04637 312-352, looked up, fragment)”, in the test with COS7 cells, the “expressed proteins localized to the vicinity of the nucleus” value was “about 90%”. For the same substance, the “binding to mortalin (co-precipitation)” value in the test on mortalin is listed as “confirmed to bind to mortalin”.

For “253-282: peptide corresponding to the mortalin amino acid residues 253-282”, in test [4], the “inhibition of binding between p53 and mortalin” value was “inhibited binding between p53 and mortalin”.
